# Measured values taken from the supplement of paper PMC11208160.
# Test: recombinant UMI read abundance after kanamycin selection (control-corrected) (log10(CPM+1)); higher = more efficient recombination; extreme values may be limits of the assay; sequences stand for … in AGTGCAGAGAAAATCGGCCAGTTTTCTCTGCCTGCAGTCCGCATGCCGTGGGACCCCTTGGGTTCTAACCTGTTGCCTAGATTTATGCAGCGGACTGCCTTTCTCCCAAAGTGATAAACCGG…AGGTTGGTTTCACT; site = the 11-nt donor
# In short: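 In a pooled Escherichia coli screen for the IS621 bridge recombinase, donor and donor-binding-loop pairs were each placed with a 12-nt UMI on a plasmid bearing a promoterless kanamycin gene. This library was co-electroporated with a target plasmid encoding a fixed target and T7-inducible recombinase, and cells were plated either on IPTG (0.07 mM) plus kanamycin or without selection, in two replicates each. Recombinant UMIs were PCR-amplified across the donor–target junction and sequenced, and counts were converted to CPM, averaged over replicates, scaled by control-derived factors and reported as log10(CPM+1).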
row,Sequence,recombinant UMI read abundance (log10)
1,TAAAATCCATGGACCGGTTTTCCCGGTAATCCGTATTTGTA (site TAAATTCCTTA),0
2,TAAACCCCATGGACCGGTTTTCCCGGTAATCCGTATTTGTA (site TAAACCCCTTA),1.33
3,TAAACTCCATGGACCGGTTTTCCCGGTAATCCGTATTTGTA (site TAAAATCCTTA),0.534
4,TAAACTCCATGGACCGGTTTTCCCGGTAATCCGTATTTGTA (site TAAACTCCTTA),1.32
5,TAAACTCCATGGACCGGTTTTCCCGGTAATCCGTATTTGTA (site TAAAGTCCTTA),0.221
6,TAAACTCCATGGACCGGTTTTCCCGGTAATCCGTATTTGTA (site TAAATTCCTTA),0
7,TAAAGTCCATGGACCGGTTTTCCCGGTAATCCGTATTTGTA (site AAAAGTCCTTA),2.17
8,TAAAGTCCATGGACCGGTTTTCCCGGTAATCCGTATTTGTA (site CAAAGTCCTTA),0.47
9,TAAAGTCCATGGACCGGTTTTCCCGGTAATCCGTATTTGTA (site GAAAGTCCTTA),0.00467
10,TAAAGTCCATGGACCGGTTTTCCCGGTAATCCGTATTTGTA (site TAAAATCCTTA),0
11,TAAAGTCCATGGACCGGTTTTCCCGGTAATCCGTATTTGTA (site TAAACTCCTTA),0.531
12,TAAAGTCCATGGACCGGTTTTCCCGGTAATCCGTATTTGTA (site TAAAGACCTTA),0.00959
13,TAAAGTCCATGGACCGGTTTTCCCGGTAATCCGTATTTGTA (site TAAAGCCCTTA),0.452
14,TAAAGTCCATGGACCGGTTTTCCCGGTAATCCGTATTTGTA (site TAAAGGCCTTA),0.00572
15,TAAAGTCCATGGACCGGTTTTCCCGGTAATCCGTATTTGTA (site TAAAGTACTTA),0.459
16,TAAAGTCCATGGACCGGTTTTCCCGGTAATCCGTATTTGTA (site TAAAGTCCTAA),0.0143
17,TAAAGTCCATGGACCGGTTTTCCCGGTAATCCGTATTTGTA (site TAAAGTCCTCA),0.00255
18,TAAAGTCCATGGACCGGTTTTCCCGGTAATCCGTATTTGTA (site TAAAGTCCTGA),0
19,TAAAGTCCATGGACCGGTTTTCCCGGTAATCCGTATTTGTA (site TAAAGTCCTTA),0.722
20,TAAAGTCCATGGACCGGTTTTCCCGGTAATCCGTATTTGTA (site TAAAGTCCTTC),0.00609
21,TAAAGTCCATGGACCGGTTTTCCCGGTAATCCGTATTTGTA (site TAAAGTCCTTG),0.00546
22,TAAAGTCCATGGACCGGTTTTCCCGGTAATCCGTATTTGTA (site TAAAGTCCTTT),0.0573
23,TAAAGTCCATGGACCGGTTTTCCCGGTAATCCGTATTTGTA (site TAAAGTGCTTA),0.00484

row,Sequence,recombinant UMI read abundance (log10)
1,TAAAGTCCATGGACCGGTTTTCCCGGTAATCCGTATTTGTA (site TAAAGTTCTTA),0.0051
2,TAAAGTCCATGGACCGGTTTTCCCGGTAATCCGTATTTGTA (site TAAATTCCTTA),0.812
3,TAAAGTCCATGGACCGGTTTTCCCGGTAATCCGTATTTGTA (site TAACGTCCTTA),0.243
4,TAAAGTCCATGGACCGGTTTTCCCGGTAATCCGTATTTGTA (site TAAGGTCCTTA),0.198
5,TAAAGTCCATGGACCGGTTTTCCCGGTAATCCGTATTTGTA (site TAATGTCCTTA),0.0108
6,TAAAGTCCATGGACCGGTTTTCCCGGTAATCCGTATTTGTA (site TACAGTCCTTA),0
7,TAAAGTCCATGGACCGGTTTTCCCGGTAATCCGTATTTGTA (site TAGAGTCCTTA),0.358
8,TAAAGTCCATGGACCGGTTTTCCCGGTAATCCGTATTTGTA (site TATAGTCCTTA),0.0492
9,TAAAGTCCATGGACCGGTTTTCCCGGTAATCCGTATTTGTA (site TCAAGTCCTTA),0.0268
10,TAAAGTCCATGGACCGGTTTTCCCGGTAATCCGTATTTGTA (site TGAAGTCCTTA),0.00382
11,TAAAGTCCATGGACCGGTTTTCCCGGTAATCCGTATTTGTA (site TTAAGTCCTTA),0.671
12,TAAAGTGCATGGACCGGTTTTCCCGGTAATCCGTATTTGTA (site TAAAGTACTTA),1.36
13,TAAAGTGCATGGACCGGTTTTCCCGGTAATCCGTATTTGTA (site TAAAGTCCTTA),0.72
14,TAAAGTGCATGGACCGGTTTTCCCGGTAATCCGTATTTGTA (site TAAAGTGCTTA),2.22
15,TAAAGTGCATGGACCGGTTTTCCCGGTAATCCGTATTTGTA (site TAAAGTTCTTA),0
16,TAAATGACATGGACCGGTTTTCCCGGTAATCCGTATTTGGA (site TAAATGACTTC),1.23
17,TAAATTCCATGGACCGGTTTTCCCGGTAATCCGTATTTGGG (site TAAATTCCTCC),0
18,TAAATTCCATGGACCGGTTTTCCCGGTAATCCGTATTTGTA (site TAAAATCCTTA),0.00321
19,TAAATTCCATGGACCGGTTTTCCCGGTAATCCGTATTTGTA (site TAAACTCCTTA),0.00609
20,TAAATTCCATGGACCGGTTTTCCCGGTAATCCGTATTTGTA (site TAAAGTCCTTA),0.471
21,TAAATTCCATGGACCGGTTTTCCCGGTAATCCGTATTTGTA (site TAAATTCCTTA),0.558
22,TAACAGGCATGGACCGGTTTTCCCGGTAATCCGTATTTGTT (site TAACAGGCTAA),1.1
23,TAACCACCATGGACCGGTTTTCCCGGTAATCCGTATTTGAT (site TAACCACCTAT),0.0138

row,Sequence,recombinant UMI read abundance (log10)
1,TAACCCGCATGGACCGGTTTTCCCGGTAATCCGTATTTGTG (site TAACCCGCTCA),0.00831
2,TAACGTCCATGGACCGGTTTTCCCGGTAATCCGTATTTGTA (site TAAAGTCCTTA),0.571
3,TAACGTCCATGGACCGGTTTTCCCGGTAATCCGTATTTGTA (site TAACGTCCTTA),0.935
4,TAACGTCCATGGACCGGTTTTCCCGGTAATCCGTATTTGTA (site TAAGGTCCTTA),0.0133
5,TAACGTCCATGGACCGGTTTTCCCGGTAATCCGTATTTGTA (site TAATGTCCTTA),0.00898
6,TAAGACACATGGACCGGTTTTCCCGGTAATCCGTATTTGTT (site TAAGACACTAA),1.94
7,TAAGAGACATGGACCGGTTTTCCCGGTAATCCGTATTTGCG (site TAAGAGACTCG),2.41
8,TAAGAGACATGGACCGGTTTTCCCGGTAATCCGTATTTGCG (site TCAGAGACTCG),0.896
9,TAAGAGACATGGACCGGTTTTCCCGGTAATCCGTATTTGCG (site TGAGAGACTCG),0.483
10,TAAGAGACATGGACCGGTTTTCCCGGTAATCCGTATTTGCG (site TTAGAGACTCG),1.14
11,TAAGATACATGGACCGGTTTTCCCGGTAATCCGTATTTGCT (site TAAGATACTAG),2.11
12,TAAGATGCATGGACCGGTTTTCCCGGTAATCCGTATTTGGG (site ATCCTCTCTGG),0
13,TAAGGAGCATGGACCGGTTTTCCCGGTAATCCGTATTTGGG (site TAAAGAGCTCC),0.628
14,TAAGGAGCATGGACCGGTTTTCCCGGTAATCCGTATTTGGG (site TAACGAGCTCC),0
15,TAAGGAGCATGGACCGGTTTTCCCGGTAATCCGTATTTGGG (site TAAGGAGCTCC),0.164
16,TAAGGAGCATGGACCGGTTTTCCCGGTAATCCGTATTTGGG (site TAATGAGCTCC),0.0199
17,TAAGTCACATGGACCGGTTTTCCCGGTAATCCGTATTTGAC (site TAAGTCACTGT),2.35
18,TAAGTTTCATGGACCGGTTTTCCCGGTAATCCGTATTTGGA (site TAAGTTTCTTC),2.13
19,TAATAAGCATGGACCGGTTTTCCCGGTAATCCGTATTTGGG (site TAATAAGCTCC),0.013
20,TAATAAGCATGGACCGGTTTTCCCGGTAATCCGTATTTGGG (site TAATCAGCTCC),0.012
21,TAATAAGCATGGACCGGTTTTCCCGGTAATCCGTATTTGGG (site TAATGAGCTCC),0.00879
22,TAATAAGCATGGACCGGTTTTCCCGGTAATCCGTATTTGGG (site TAATTAGCTCC),0.507
